Measured values published in patent publication US12144791B2, “KRAS agonists, pharmaceutical compositions, and uses in managing cancer” (Emory University, priority 2019, dated 2024).

Assays:
[1] = system: G12D mutant KRAS-driven lung cancer; experiment: Genetically engineered LSL-KRASG12D mouse lung cancer model; assay type: in vivo
From the text: Tumor numbers were counted under the microscope and tumor area was quantified using modular imaging software.
KRAS mutations are common genetic alterations in NSCLC and contribute to the resistance of lung cancer to conventional therapy. To test the potency of KRA-533 in mutant KRAS-driven lung cancer, lox-stop-lox (LSL)-KRASG12D mice were generated. By engineering LoxP DNA elements into the mouse genome that surround a synthetic ‘stop’ element (lox-stop-lox) inserted in front of mutant KRAS G12D, one can ‘turn-on’ mutant KRAS G12D with delivery of Cre recombinase. To control the expression of KRAS G12D, a LSL cassette was engineered into the first intron of the KRAS gene. The LSL cassette consists of transcriptional and translational stop elements flanked by LoxP sites that prevent the expression of the mutant allele until the stop elements are removed by the activity of Cre recombinase. To produce KRAS G12D mutant-driven lung cancer, alleles were induced in mouse lung using intranasal administration of a lentiviral Cre recombinase. Primary lung tumors developed around 12 weeks post-inoculation.
To assess whether KRA-533 has antitumor activity against G12D mutant KRAS-driven lung cancer in genetically engineered mouse models, KRA-533 (20 mg/kg/d) or vehicle control was administered i.p. starting at 10 weeks post AdeCre delivery. After treatment for 3 months, mice were euthanized for analysis of tumor burden. […] There were 3 deaths out of 8 mice in the control group versus 1 death out of 8 mice in the KRA-533 treatment group in four months before euthanization.

[2] = molecular target: T1, KRAS S17A/K117A (AA) (Homo sapiens, UniProt P01116, K117A/S17A); experiment: Thermal shift assay, purified KRAS S17A/K117A (AA); assay type: binding
T1 construct: made in house
Method: Melting temperature (Tm) values of DMSO control and 15 μM KRA-533 are shown.
(§1) To further test this intracellularly, GFP-tagged WT, S17A, K117A and AA KRAS mutants were exogenously transfected into A549 cells. […] Activities of exogenous GFP-tagged WT and KRAS mutants were analyzed by Western blot using GFP antibody.

[3] = system: lung tumors of LSL-KRASG12D LKB1fl/fl (KL) mice; experiment: Genetically engineered LSL-KRASG12D LKB1fl/fl (KL) mouse model; assay type: in vivo
Method: After administration of adenovirus Cre recombinase in KL mice for 6 weeks, mice were treated with KRA-533 (20 mg/kg/d) for 8 weeks (n=6 each group). Survival of mice was calculated up to 8 weeks before euthanization in the control group versus the KRA-533 treatment group.
It is reported that the co-occurrence of KRAS and LKB1(STK11) mutations could label a more aggressive molecular subtype of NSCLC. Around half of KRAS-mutant lung cancer patients also carry LKB1 mutations, therefore, it will be important to test whether KRA-533 is also effective for the treatment of KRAS-mutant lung cancers with mutation or loss. LSL-KRASG12D LKB1fl/fl (KL) mice were generated by intercrossing B6.129S4-Krastm3Tyj/J (KRASG12D) and FVB; 129S6-Stk11tm1Rdp/Nci (LKB1) strains two generations and genotyped to confirm homozygosity for the LKB1 allele. These mice contain a KRASG12D LSL knock-in allele and a floxed allele of LKB1 (LKB1fl/fl). KRA-533 (20 mg/kg/d) or vehicle control was administered i.p. starting at 6 weeks post AdeCre delivery. After treatment for 8 weeks, mice were euthanized, and lung tumors were analyzed as described above.

[4] = molecular target: KRAS G12D (Homo sapiens, UniProt P01116, G12D); experiment: Thermal shift assay, purified KRAS G12D; assay type: binding; settings: increasing concentrations
Method: Melting temperature (Tm) values of DMSO Ctrl and 15 μM of KRA-533 are shown.
To test whether KRA-533 directly binds to KRAS, a thermal shift assay was employed. […] To further assess whether KRA-533 activates KRAS directly, an in vitro cell-free GDP-GTP exchange experiment was carried out. Purified WT, G12C, G12D or G13D mutant KRAS proteins were incubated with purified GEF (RASGRP1) and GAP (RASA1) proteins in reaction buffer containing [γ-35S]-GTP in the absence or presence of increasing concentrations of KRA-533 at 25° C. for 60 min. KRAS activity was quantified by liquid scintillation counting. […] These findings indicate that KRA-533 not only activates WT KRAS but also has the capacity to further enhance KRAS activity of mutant KRAS.

[5] = system: human lung cancer cells; experiment: Screening of cytotoxicity by sulforhodamine B (SRB) assay; assay type: cell-based; settings: among top 500 docked NCI small molecules
From the text: A library containing small molecules from the National Cancer Institute (NCI) was employed to dock the GTP/GDP binding pocket of KRAS (PDB ID code: 4EPT) using the University of California, San Francisco (UCSF) DOCK 6.1 program suite. The small molecules were ranked according to their energy scores. Top 500 small molecules with predicted binding energies were selected for screening of cytotoxicity in human lung cancer cells by sulforhodamine B (SRB) assay. […] This lead compound was named KRAS agonist-533 (KRA-533) (FIG. 1A). To test whether KRA-533 regulates KRAS activity in lung cancer cells, human lung cancer cell lines with or without KRAS mutation were treated with KRA-533 (10 μM) for 48 h. […] Cell proliferation was also measured following treatment of cells for 48 h using MTS Cell Proliferation Colorimetric Assay Kit.

[6] = molecular target: T2, GFP-tagged KRAS S17A (Homo sapiens, UniProt P01116, S17A); experiment: Raf-1-RBD pull-down of exogenous GFP-tagged KRAS S17A in A549 cells; assay type: cell-based; settings: 15 μM, 48 h
T2 construct: expressed in transfected cells; host or cells: A549
Method: The GFP-tagged exogenous KRAS-GTP (GFP-KRAS-GTP) was analyzed by Western blot using anti-GFP antibody.
as §1

[7] = system: NSCLC cells; experiment: Colony formation assay; assay type: cell-based, human; settings: 10 μM, 10 days; A549, H358, H157, Calu-1, H1972 vs H292, HCC827, H1975, H322

O=C(CBr)NCCCCc1ccc(C(=O)O)cc1 [KRA-533, 4-(4-(2-bromoacetamido)butyl)benzoic acid]
deaths in four months before euthanization ([1]; 20 mg/kg/d i.p.): 1 death out of 8 mice | weight loss and normal tissue toxicity ([1]; 20 mg/kg/d i.p.): Slight weight loss but no significant normal tissue toxicity | tumor burden and multiplicity in the lung ([1]; 20 mg/kg/d i.p. from 10 weeks post AdeCre, four months): significant reduction of tumor burden and multiplicity in the lung | survival ([1]; 20 mg/kg/d i.p., compared with the control group): prolonged survival | binding (thermal shift), AA (S17A/K117A) KRAS [2]: failed to bind | tumor growth ([3]; 20 mg/kg/d i.p. from 6 weeks post AdeCre, 8 weeks): significantly suppressed tumor growth | survival ([3]; 20 mg/kg/d i.p., up to 8 weeks): prolonged survival | melting temperature (Tm) / binding, KRAS G12D [4]: Dose dependent increases in melting temperature (Tm) | activity against human lung cancer cells (cytotoxicity, SRB assay) [5]: the most potent activity against human lung cancer cells | activity of exogenous GFP-tagged S17A KRAS (GFP-KRAS-GTP) [6]: activated exogenous WT and S17A | cell growth suppression (colony formation), KRAS mutant versus non-mutant cell lines [7]: relatively more sensitive to KRA-533-mediated cell growth suppression than those without KRAS mutation
